Reference: patent US20060252798A1, “Metal ion chelators and therapeutic use thereof” (priority 2003, published 2006)

Columns and labels:
[1] = tested on: SK-N-MC neuroepithelioma cells; test: 3H-uridine incorporation by SK-N-MC cells; assay type: cell-based, human; conditions: 20 h incubation then 2 h label; Mean ± SD, 3 experiments
Description: After a 20 h incubation of the SK-N-MC cells with a selection of analogues, ^3H-thymidine, ^3H-leucine, or ^3H-uridine (1 μCi/ml) was added for 2 h at 37° C. The cells were detached from the 96 well plate using 1 mM EDTA in Ca(II)/Mg(II)-free PBS and collected and washed using a cell harvester (Tomtec Harvester 96, Linbrook, Queensland, Australia). Radioactivity was measured on a P-scintillation counter (LKB Wallace, Turku, Finland).

active caspase-8 = test: Protein level of active caspase-8 in M109 cells (western blotting); assay type: cell-based, mouse; conditions: 1 μM
Description: FIG. 14. Effect of Dp44mT (1 μM) on the (A,B) protein levels of active caspase-3, -8 and -9, and (C,D) the activity of caspase-3, -8 and -9 in cultured M109 cells in the absence (C) and presence (D) of cell-permeable caspase inhibitors. (A) Caspase-3, -8, and -9 levels after Dp44mT treatment at indicated times as detected by western blotting (upper panel). The anti-β-actin antibody was used to ensure equal protein loading (lower panel). (B) Densitometric analysis of the expression of caspase-3, -8, and -9 as a function of time normalized to β-actin (C) Caspase activity induced by Dp44mT (1 μM) at 0-48 h was expressed as a percentage of the 0 h time value. (D) Cell-permeable inhibitors of caspase-3, -8 or -9 at 1 μM prevented activation of these enzymes when incubated with Dp44mT (1 μM) for 48 h. Results are mean±SEM of three separate experiments.
Rabbit anti-active caspase-3 antibody, rabbit anti-active caspase-8 antibody and Annexin V fluorescein isothiocyanate (FITC) were from BD PharMingen (San Diego, Calif., USA). Anti-h-cytc MoAb was from R&D Systems Minneapolis, Minn., USA). Rabbit anti-active caspase-9 antibody, mouse anti-Bcl-2 and mouse anti-Bax antibodies were obtained from Santa Cruz (Santa Cruz, Calif., USA). Mouse anti-mouse β-actin antibody, horseradish peroxidase-conjugated antirabbit, and anti-mouse IgG were from Sigma Chemical Co. (St. Louis, Mo., USA).
To determine the role of caspase activation in Dp44mT-induced apoptosis in M109 cells, protein levels of active caspase-3, -8 and -9 (FIG. 14A,B) and their enzymatic activity (FIG. 14C,D) were examined.

caspase-8 = test: Caspase-8 activity in M109 cells (BD Apolert Caspase Assay Plate); assay type: cell-based, mouse; conditions: 1 μM
Description: Cultured M109 cells were treated with or without Dp44mT (1 μM) for 0-48 h at 37° C. Cells were lysed^27 and caspase activities were determined using the BD Apolert™ Caspase Assay Plate (BD Biosciences, San Diego, Calif., USA). Cell-permeable pan-caspase-3, -8, and -9 inhibitors (BD Biosciences) were included as inhibitory controls.

[2] = tested on: holo-cytochrome c (h-cytc); test: Release of holo-cytochrome c from mitochondria into cytosol of M109 cells; assay type: cell-based, mouse; conditions: 1 μM, 2 h exposure (FIG. 15A)
Description: Due to the importance of h-cytc release from the mitochondrion on apoptosis induction,^8 further studies investigated the effect of Dp44mT on this process (FIG. 15A). Preparation of cytosolic and mitochondrial fractions and western blotting were carried out using standard techniques.^27 There was very little h-cytc expression in the cytosolic fractions of control M109 cells (i.e., at 0 h), with the greatest amount of h-cytc being found in the mitochondrion at this time (FIG. 15A). […] The release of h-cytc into the cytosol plateaued after a 4 h incubation with Dp44mT and then decreased to that found in control cells after 24 and 48 h. This increase in cytosolic h-cytc correlated with the loss from the mitochondrion (FIG. 15A). The near complete disappearance of h-cytc from the cytosol at 24 and 48 h may be due to its release from cells or its degradation^28 (FIG. 15A).

M109 lung carcinoma = test: Inhibition of M109 lung carcinoma growth in vivo; design: species or system mouse; conditions: 0.4 mg/kg iv twice daily for 5 days, day 12
Description: Inhibition of M109 Lung Cancer Cell Growth by Iron Chelators In Vivo Female CD2F1 mice aged 8-10 weeks old were sc implanted with 1×10^5 M109 cells. The tumour cells were passaged in CD2F1 mice by preparing a brei from the tumour and injecting it sc.^20 Dp44mT was dissolved in 30% (v/v) propylene glycol in saline and injected iv 4 days after tumour engraftment, twice daily for 5 days followed by a “rest period” of 2 days when the animal was not injected. On the twelfth day after tumour implantation, mice were sacrificed using methoxyfluorane and cardiac puncture performed. Blood counts and erythrocyte indices were measured using a Sysmex Blood Counter (Prince of Wales Hospital, Sydney, Australia). Mouse body weight changes during the treatment period were recorded. The tumours were weighed and fixed for histological examination. The experimental groups consisted of eight mice for the control and each treatment (Table 5).
As a relevant positive control, animals were administered Triapine® at its MTD (6 mg/kg). The tumour weight was measured on the twelfth day after the tumour cell implantation.

[3] = Mouse weight loss and haematological indices in M109-bearing mice; assay type: in vivo; conditions: Mean ± SEM
Description: The tumour cells were passaged in CD2F1 mice by preparing a brei from the tumour and injecting it sc.^20 Dp44mT was dissolved in 30% (v/v) propylene glycol in saline and injected iv 4 days after tumour engraftment, twice daily for 5 days followed by a “rest period” of 2 days when the animal was not injected. On the twelfth day after tumour implantation, mice were sacrificed using methoxyfluorane and cardiac puncture performed. Blood counts and erythrocyte indices were measured using a Sysmex Blood Counter (Prince of Wales Hospital, Sydney, Australia). Mouse body weight changes during the treatment period were recorded. The tumours were weighed and fixed for histological examination. The experimental groups consisted of eight mice for the control and each treatment (Table 5).

**Q.** For CC(=O)N(O)CCCCCNC(=O)CCC(=O)N(O)CCCCCNC(=O)CCC(=O)N(O)CCCCCN [DFO, desferrioxamine], which “3H-Uridine Incorporation” value [1] is on record?
**A.** Its value is 34 ± 5 % Control.

**Q.** With CN(C)C(=S)NN=C(c1ccccn1)c1ccccn1 [Dp44mT, di-2-pyridylketone 4,4-dimethyl-3-thiosemicarbazone] as the molecule, how does the “caspase-8 protein level” value (active caspase-8; 2 h) read?
**A.** The value was “not increased”.

**Q.** What about the caspase-8 protein level (active caspase-8; 6 h) of the same molecule?
**A.** The caspase-8 protein level was 150 % of the control.

**Q.** What about the caspase-8 protein level (active caspase-8; 12 h) of the same molecule?
**A.** The caspase-8 protein level was 400 % of the control.

**Q.** What about the caspase-8 protein level (active caspase-8; 24 h) of the same molecule?
**A.** The caspase-8 protein level was “about 4 fold that of control cells”.

**Q.** And the caspase-8 protein level (active caspase-8; 48 h)?
**A.** The caspase-8 protein level was 3.4 fold that of control cells.

**Q.** What about the caspase-8 activity (caspase-8; 12 h) of the same molecule?
**A.** Its caspase-8 activity is 299 % of the control.

**Q.** What about the “caspase-8 activity (plateau)” value (caspase-8; after 24 h) of the same molecule?
**A.** Its value is 400-600 % of the control.

**Q.** And the “h-cytc release from the mitochondrion” value [2]?
**A.** Its value is “h-cytc was found in the cytosolic fraction”.

**Q.** And the tumour weight (M109 lung carcinoma)?
**A.** Its tumour weight is 47 % of control.

**Q.** And the Body weight loss ([3]; Dp44mT 0.3 mg/kg)?
**A.** The Body weight loss was 1.3 ± 0.3 g.

**Q.** What about the Haematocrit ([3]; Dp44mT 0.3 mg/kg) of the same molecule?
**A.** Its Haematocrit is 0.40 ± 0.03.

**Q.** And the Haemoglobin ([3]; Dp44mT 0.3 mg/kg)?
**A.** The Haemoglobin was 13.3 ± 0.5 g/dL.

**Q.** And the Platelets ([3]; Dp44mT 0.3 mg/kg)?
**A.** Its Platelets is 1019 ± 87 10^9/L.

**Q.** What about the RBC ([3]; Dp44mT 0.3 mg/kg) of the same molecule?
**A.** Its RBC is 8.9 ± 0.4 10^12/L.

**Q.** And the WBC ([3]; Dp44mT 0.3 mg/kg)?
**A.** Its WBC is 4.2 ± 0.4 10^9/L.

**Q.** What about the Body weight loss ([3]; Dp44mT 0.4 mg/kg) of the same molecule?
**A.** Its Body weight loss is 1.1 ± 0.2 g.

**Q.** What about the Haematocrit ([3]; Dp44mT 0.4 mg/kg) of the same molecule?
**A.** The Haematocrit was 0.40 ± 0.01.

**Q.** And the Haemoglobin ([3]; Dp44mT 0.4 mg/kg)?
**A.** The Haemoglobin was 11.8 ± 0.8 g/dL.

**Q.** What about the Platelets ([3]; Dp44mT 0.4 mg/kg) of the same molecule?
**A.** Its Platelets is 636 ± 88 10^9/L.

**Q.** And the RBC ([3]; Dp44mT 0.4 mg/kg)?
**A.** Its RBC is 8.0 ± 0.6 10^12/L.

**Q.** What about the WBC ([3]; Dp44mT 0.4 mg/kg) of the same molecule?
**A.** Its WBC is 3.9 ± 0.6 10^9/L.
